Source: patent publication US11446287B2, “Compounds and methods for EP300 or CBP modulation and indications therefor” (Opna Immuno-Oncology SA, priority 2019, dated 2022)

These compounds were tested against T1, Recombinant human EP300 containing the bromodomain (EP300-BD (1040-1161)) (Homo sapiens, UniProt Q09472) (assay: EP300 Alphascreen binding assay).
T1 construct: Recombinant human EP300 bromodomain (EP300-BD (1040-1161)); made in house; host or cells: E. coli BL21-CodonPlus (DE3), modified pET vector
T1 sequence (Q09472 1040-1161): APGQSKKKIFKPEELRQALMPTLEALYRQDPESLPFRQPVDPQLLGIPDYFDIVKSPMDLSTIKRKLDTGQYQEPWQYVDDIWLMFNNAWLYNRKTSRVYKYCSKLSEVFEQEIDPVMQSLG
Procedure, shortened: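 Displacement of a biotinylated acetyl-K56 histone H3 peptide from the N-His bromodomain construct (1040-1161) measured by AlphaScreen proximity, beads at 7.5 μg/ml final, read 60 min after addition. Protein, peptide and compound first incubated 1 h at room temperature, pH 7.5 HEPES buffer; IC50 by four-parameter logistic fit.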

SMILES	IC50 [nM]
Cc1noc(C)c1-c1cnc2c(c1)c(-c1ccc(C(=O)O)cc1OCC(F)F)cn2C(C1CC1)C1CC1 [P-0338, 4-(1-(dicyclopropylmethyl)-5-(3,5-dimethylisoxazol-4-yl)-1H-pyrrolo[2,3-b]pyridin-3-yl)-3-(2,2-difluoroethoxy)benzoic acid]	0.1 to 1000
COc1cc(C(=O)O)ncc1-c1cn(C(C2CC2)C2CC2)c2ncc(-c3c(C)noc3C)cc12 [P-0339, 5-(1-(dicyclopropylmethyl)-5-(3,5-dimethylisoxazol-4-yl)-1H-pyrrolo[2,3-b]pyridin-3-yl)-4-methoxypicolinic acid]	0.1 to 1000
Cc1noc(C)c1-c1cnc2c(c1)c(-c1c(Cl)cc(C(=O)O)cc1OCC(F)F)cn2C(C1CC1)C1CC1 [P-0340, 3-chloro-4-(1-(dicyclopropylmethyl)-5-(3,5-dimethylisoxazol-4-yl)-1H-pyrrolo[2,3-b]pyridin-3-yl)-5-(2,2-difluoroethoxy)benzoic acid]	0.1 to 1000
Cc1noc(C)c1-c1cnc2c(c1)c(-c1ccc(C(=O)O)cc1OC1CCC1)cn2C1CCOCC1 [P-0341, 3-cyclobutoxy-4-(5-(3,5-dimethylisoxazol-4-yl)-1-(tetrahydro-2H-pyran-4-yl)-1H-pyrrolo[2,3-b]pyridin-3-yl)benzoic acid]	0.1 to 1000
Cc1noc(C)c1-c1cnc2c(c1)c(-c1ccc(C(=O)O)cc1OC(C)C)c(C)n2C(C1CC1)C1CC1 [P-0342, 4-(1-(dicyclopropylmethyl)-5-(3,5-dimethylisoxazol-4-yl)-2-methyl-1H-pyrrolo[2,3-b]pyridin-3-yl)-3-isopropoxybenzoic acid]	0.1 to 1000
Cc1noc(C)c1-c1cnc2c(c1)c(-c1ccc(C(=O)O)cc1OC(F)(F)F)c(C)n2C(C1CC1)C1CC1 [P-0343, 4-(1-(dicyclopropylmethyl)-5-(3,5-dimethylisoxazol-4-yl)-2-methyl-1H-pyrrolo[2,3-b]pyridin-3-yl)-3-(trifluoromethoxy)benzoic acid]	0.1 to 1000
Cc1noc(C)c1-c1ccc2c(c1)c(-c1ccc(C(=O)O)cc1OC(F)(F)F)cn2C(C1CC1)C1CC1 [P-0344, 4-(1-(dicyclopropylmethyl)-5-(3,5-dimethylisoxazol-4-yl)-1H-indol-3-yl)-3-(trifluoromethoxy)benzoic acid]	0.1 to 1000
Cc1noc(C)c1-c1cnc2c(c1)c(-c1ccc(C(=O)O)cc1OC(F)(F)F)c(C)n2-c1ncccc1C#N [P-0345, 4-(1-(3-cyanopyridin-2-yl)-5-(3,5-dimethylisoxazol-4-yl)-2-methyl-1H-pyrrolo[2,3-b]pyridin-3-yl)-3-(trifluoromethoxy)benzoic acid]	0.1 to 1000
Cc1noc(C)c1-c1cnc2c(c1)c(-c1c(Cl)cc(C(=O)O)cc1OC(F)(F)F)cn2[C@H]1CCOC1 [P-0346, (S)-3-chloro-4-(5-(3,5-dimethylisoxazol-4-yl)-1-(tetrahydrofuran-3-yl)-1H-pyrrolo[2,3-b]pyridin-3-yl)-5-(trifluoromethoxy)benzoic acid]	0.1 to 1000
Cc1noc(C)c1-c1cnc2c(c1)c(-c1ccc(C(=O)O)cc1OC1CCC1)cn2-c1cnc(N2CCC2)nc1 [P-0347, 4-(1-(2-(azetidin-1-yl)pyrimidin-5-yl)-5-(3,5-dimethylisoxazol-4-yl)-1H-pyrrolo[2,3-b]pyridin-3-yl)-3-cyclobutoxybenzoic acid]	0.1 to 1000
Cc1noc(C)c1-c1cnc2c(c1)c(-c1c(F)cc(C(=O)O)cc1OCC(F)F)cn2-c1cnc(N2CCC2)nc1 [P-0348, 4-(1-(2-(azetidin-1-yl)pyrimidin-5-yl)-5-(3,5-dimethylisoxazol-4-yl)-1H-pyrrolo[2,3-b]pyridin-3-yl)-3-(2,2-difluoroethoxy)-5-fluorobenzoic acid]	0.1 to 1000
Cc1nn(C(F)F)cc1-n1cc(-c2ccc(C(=O)O)cc2OCC(F)F)c2cc(-c3c(C)noc3C)cnc21 [P-0349, 3-(2,2-difluoroethoxy)-4-(1-(1-(difluoromethyl)-3-methyl-1H-pyrazol-4-yl)-5-(3,5-dimethylisoxazol-4-yl)-1H-pyrrolo[2,3-b]pyridin-3-yl)benzoic acid]	0.1 to 1000
Cc1noc(C)c1-c1cnc2c(c1)c(-c1ccc(C(=O)O)cc1OC1CCC1)cn2[C@H]1CCOC1 [P-0350, (S)-3-cyclobutoxy-4-(5-(3,5-dimethylisoxazol-4-yl)-1-(tetrahydrofuran-3-yl)-1H-pyrrolo[2,3-b]pyridin-3-yl)benzoic acid]	0.1 to 1000
Cc1nn(C(F)F)cc1-n1cc(-c2ccc(C(=O)O)cc2OC2CCC2)c2cc(-c3c(C)noc3C)cnc21 [P-0351, 3-cyclobutoxy-4-(1-(1-(difluoromethyl)-3-methyl-1H-pyrazol-4-yl)-5-(3,5-dimethylisoxazol-4-yl)-1H-pyrrolo[2,3-b]pyridin-3-yl)benzoic acid]	0.1 to 1000
Cc1noc(C)c1-c1cnc2c(c1)c(-c1c(Cl)cc(C(=O)O)cc1OCC(F)F)cn2-c1cnn(C(F)F)c1C [P-0352, 3-chloro-5-(2,2-difluoroethoxy)-4-(1-(1-(difluoromethyl)-5-methyl-1H-pyrazol-4-yl)-5-(3,5-dimethylisoxazol-4-yl)-1H-pyrrolo[2,3-b]pyridin-3-yl)benzoic acid]	0.1 to 1000
Cc1noc(C)c1-c1cnc2c(c1)c(-c1ccc(C(=O)O)cc1OC1CCC1)cn2-c1cnn(C(F)F)c1C [P-0353, 3-cyclobutoxy-4-(1-(1-(difluoromethyl)-5-methyl-1H-pyrazol-4-yl)-5-(3,5-dimethylisoxazol-4-yl)-1H-pyrrolo[2,3-b]pyridin-3-yl)benzoic acid]	0.1 to 1000
Cc1noc(C)c1-c1cnc2c(c1)c(-c1ccc(C(=O)O)cc1OC(C)C)cn2-c1cnn(C(F)F)c1C [P-0354, 4-(1-(1-(difluoromethyl)-5-methyl-1H-pyrazol-4-yl)-5-(3,5-dimethylisoxazol-4-yl)-1H-pyrrolo[2,3-b]pyridin-3-yl)-3-isopropoxybenzoic acid]	0.1 to 1000
Cc1noc(C)c1-c1cnc2c(c1)c(-c1c(Cl)cc(C(=O)O)cc1OC(F)(F)F)cn2C1CCOCC1 [P-0355, 3-chloro-4-(5-(3,5-dimethylisoxazol-4-yl)-1-(tetrahydro-2H-pyran-4-yl)-1H-pyrrolo[2,3-b]pyridin-3-yl)-5-(trifluoromethoxy)benzoic acid]	0.1 to 1000
Cc1noc(C)c1-c1cnc2c(c1)c(-c1c(Cl)cc(C(=O)O)cc1OC1CCC1)cn2C(C1CC1)C1CC1 [P-0356, 3-chloro-5-cyclobutoxy-4-(1-(dicyclopropylmethyl)-5-(3,5-dimethylisoxazol-4-yl)-1H-pyrrolo[2,3-b]pyridin-3-yl)benzoic acid]	0.1 to 1000
Cc1noc(C)c1-c1cnc2c(c1)c(-c1ccc(C(=O)O)cc1OC(C)C)cn2C1CCOCC1 [P-0357, 4-(5-(3,5-dimethylisoxazol-4-yl)-1-(tetrahydro-2H-pyran-4-yl)-1H-pyrrolo[2,3-b]pyridin-3-yl)-3-isopropoxybenzoic acid]	0.1 to 1000
Cc1noc(C)c1-c1cnc2c(c1)c(-c1c(Cl)cc(C(=O)O)cc1OC1CCC1)cn2C1CCOCC1 [P-0358, 3-chloro-5-cyclobutoxy-4-(5-(3,5-dimethylisoxazol-4-yl)-1-(tetrahydro-2H-pyran-4-yl)-1H-pyrrolo[2,3-b]pyridin-3-yl)benzoic acid]	0.1 to 1000
Cc1noc(C)c1-c1cnc2c(c1)c(-c1c(Cl)cc(C(=O)O)cc1OCC(F)F)cn2C1CCOCC1 [P-0359, 3-chloro-5-(2,2-difluoroethoxy)-4-(5-(3,5-dimethylisoxazol-4-yl)-1-(tetrahydro-2H-pyran-4-yl)-1H-pyrrolo[2,3-b]pyridin-3-yl)benzoic acid]	0.1 to 1000
CCOc1cc(C(=O)O)c(F)cc1-c1cn([C@H]2CCOC2)c2ncc(-c3c(C)noc3C)cc12 [P-0360, (S)-4-(5-(3,5-dimethylisoxazol-4-yl)-1-(tetrahydrofuran-3-yl)-1H-pyrrolo[2,3-b]pyridin-3-yl)-5-ethoxy-2-fluorobenzoic acid]	0.1 to 1000
Cc1noc(C)c1-c1cnc2c(c1)c(-c1c(Cl)cc(C(=O)O)cc1OC1CCC1)cn2[C@H]1CCOC1 [P-0361, (S)-3-chloro-5-cyclobutoxy-4-(5-(3,5-dimethylisoxazol-4-yl)-1-(tetrahydrofuran-3-yl)-1H-pyrrolo[2,3-b]pyridin-3-yl)benzoic acid]	0.1 to 1000
COc1cc(C(=O)O)ncc1-c1cn(C2CCOCC2)c2ncc(-c3c(C)noc3C)cc12 [P-0362, 5-(5-(3,5-dimethylisoxazol-4-yl)-1-(tetrahydro-2H-pyran-4-yl)-1H-pyrrolo[2,3-b]pyridin-3-yl)-4-methoxypicolinic acid]	0.1 to 1000
Cc1noc(C)c1-c1cnc2c(c1)c(-c1c(Cl)cc(C(=O)O)cc1OC1CC1)cn2C(C1CC1)C1CC1 [P-0363, 3-chloro-5-cyclopropoxy-4-(1-(dicyclopropylmethyl)-5-(3,5-dimethylisoxazol-4-yl)-1H-pyrrolo[2,3-b]pyridin-3-yl)benzoic acid]	0.1 to 1000
Cc1noc(C)c1-c1cnc2c(c1)c(-c1ccc(C(=O)O)cc1OC(F)(F)F)cn2CC1(C#N)CCC1 [P-0364, 4-(1-((1-cyanocyclobutyl)methyl)-5-(3,5-dimethylisoxazol-4-yl)-1H-pyrrolo[2,3-b]pyridin-3-yl)-3-(trifluoromethoxy)benzoic acid]	0.1 to 1000
Cc1nn(CC(C)(C)O)cc1-n1cc(-c2ccc(C(=O)O)cc2OC(F)(F)F)c2cc(-c3c(C)noc3C)cnc21 [P-0365, 4-(5-(3,5-dimethylisoxazol-4-yl)-1-(1-(2-hydroxy-2-methylpropyl)-3-methyl-1H-pyrazol-4-yl)-1H-pyrrolo[2,3-b]pyridin-3-yl)-3-(trifluoromethoxy)benzoic acid]	0.1 to 1000
